US20130143866A1, “ANTICANCER COMBINATION TREATMENTS” (priority 2011, published 2013)

Legend:
+SA mammary tumor cells = assay: HGF-dependent +SA mammary tumor cell growth, viable cell number by MTT colorimetric assay; assay type: cell-based, mice; settings: for HGF-dependent +SA cell growth: vs vehicle-treated control; for +SA tumor cell growth: summary statement, HGF-dependent, in a dose-responsive manner
Description: +SA mammary tumor cells were used for the examples presented herein. […] In addition, +SA cells can form adenocarcinomas that metastasize to the lungs when injected into the mammary gland fat pad of syngeneic female mice. +SA cells were maintained in serum-free defined media containing 10 ng/mL Hepatocyte growth factor (HGF) as the mitogen, Dulbecco's Modified Eagle's Medium (DMEM)/F12 supplemented with 5 mg/mL bovine serum albumin (BSA), 10 μg/mL transferrin, 100 U/mL soybean trypsin inhibitor, 100 U/mL penicillin, 0.1 mg/mL streptomycin and 10 μg/mL insulin at 37° C. in an environment of 95% air and 5% CO2 in humidified incubator. For subculturing, cells were rinsed with sterile Ca^2+ and Mg^2+-free phosphate buffered saline (PBS) and incubated with 0.05% trypsin containing 0.025% EDTA in PBS for 5 min at 37° C. The released cells were centrifuged, resuspended in serum-free media and counted using hemocytometer.
γ-tocotrienol was prepared for the tests of this example by suspending it in a solution of sterile 10% BSA. An appropriate amount of γ-tocotrienol was dissolved in 100 μL of absolute ethyl alcohol and then added to a small volume of sterile 10% BSA in water and incubated overnight at 37° C. This stock solution was used to prepare various concentrations of the treatment media. Ethanol was added to all treatment groups in a given experiment such that the final concentration of ethanol never exceeded 0.1%. Stock solution of the Met inhibitor, SU11274 was prepared in DMSO and DMSO was added to all treatment media such that the final concentration was same in all treatment groups and never exceeded a concentration of 0.1%.
+SA cells were initially seeded at a density of 5×10^4 cells/well (6 replicates/group) in 24-well plates in serum-free defined media containing 10 ng/mL HGF as mitogen and allowed to attach overnight. For growth studies, +SA cells were maintained in serum-free defined media containing various doses of HGF over a 3-day culture period. In the antiproliferative experiments, cells were exposed to respective experimental treatments containing various concentrations of SU11274 or γ-tocotrienol alone or in combination for three days. On the fourth day, cells were divided into different treatment groups and treated with various concentrations of SU11274 or γ-tocotrienol alone or in combination for 24 hours. At the end of the treatment exposure period, the viable +SA cell number was determined by 3-(4,5-dimethylthiazol-2yl)-2,5-diphenyl tetrazolium bromide (MTT) colorimetric assay. Control and treatment media in various treatment groups in 24-well plates were replaced with fresh media containing 0.41 mg/ml MTT. After 4-h incubation period, the media was removed and MTT crystals were dissolved in isopropanol (1 ml/well), and the optical density of each sample was measured at 570 nm on a microplate reader (SpectraCount, Packard BioScience Company). The number of cells/well was calculated against a standard curve prepared by plating various concentrations of cells, as determined by hemocytometer, at the beginning of each experiment.
Vertical bars indicate mean viable cell number±SEM for six replicates in each treatment group. Differences among various treatment groups in +SA cell growth studies were determined by the analysis of variance (ANOVA) followed by Dunnett's t test. A difference of P<0.05 was considered statistically significant as compared to the vehicle-treated control.
Effects of various doses of SU11274, a specific Met Receptor Tyrosine Kinase inhibitor, or γ-tocotrienol on HGF-dependent +SA mammary tumor cell growth after a 3-day culture period are shown in FIG. 2. […] In the present example, +SA cells were initially plated at a density of 5×10^4 cells/well (6 replicates/group) in 24-well plates and exposed to various doses of SU11274 or γ-tocotrienol in the presence of 10 ng/mL HGF throughout a 3-day culture period. Viable cell number was determined using the MTT colorimetric assay. […]

Met = molecular target: T1, Met (Mus musculus, UniProt P16056); assay: Western blot analysis of total and phosphorylated (active) Met levels in HGF-stimulated +SA cells; assay type: cell-based, mice; settings: for HGF-dependent Met tyrosine phosphorylation: summary statement, in a dose-responsive manner
T1 construct: whole cell lysates were prepared and then subjected to polyacrylamide gel electrophoresis and Western blot analysis for total and phosphorylated Met levels; endogenous in cells; host or cells: +SA mammary tumor cells
T1 sequence (P16056 25-1379): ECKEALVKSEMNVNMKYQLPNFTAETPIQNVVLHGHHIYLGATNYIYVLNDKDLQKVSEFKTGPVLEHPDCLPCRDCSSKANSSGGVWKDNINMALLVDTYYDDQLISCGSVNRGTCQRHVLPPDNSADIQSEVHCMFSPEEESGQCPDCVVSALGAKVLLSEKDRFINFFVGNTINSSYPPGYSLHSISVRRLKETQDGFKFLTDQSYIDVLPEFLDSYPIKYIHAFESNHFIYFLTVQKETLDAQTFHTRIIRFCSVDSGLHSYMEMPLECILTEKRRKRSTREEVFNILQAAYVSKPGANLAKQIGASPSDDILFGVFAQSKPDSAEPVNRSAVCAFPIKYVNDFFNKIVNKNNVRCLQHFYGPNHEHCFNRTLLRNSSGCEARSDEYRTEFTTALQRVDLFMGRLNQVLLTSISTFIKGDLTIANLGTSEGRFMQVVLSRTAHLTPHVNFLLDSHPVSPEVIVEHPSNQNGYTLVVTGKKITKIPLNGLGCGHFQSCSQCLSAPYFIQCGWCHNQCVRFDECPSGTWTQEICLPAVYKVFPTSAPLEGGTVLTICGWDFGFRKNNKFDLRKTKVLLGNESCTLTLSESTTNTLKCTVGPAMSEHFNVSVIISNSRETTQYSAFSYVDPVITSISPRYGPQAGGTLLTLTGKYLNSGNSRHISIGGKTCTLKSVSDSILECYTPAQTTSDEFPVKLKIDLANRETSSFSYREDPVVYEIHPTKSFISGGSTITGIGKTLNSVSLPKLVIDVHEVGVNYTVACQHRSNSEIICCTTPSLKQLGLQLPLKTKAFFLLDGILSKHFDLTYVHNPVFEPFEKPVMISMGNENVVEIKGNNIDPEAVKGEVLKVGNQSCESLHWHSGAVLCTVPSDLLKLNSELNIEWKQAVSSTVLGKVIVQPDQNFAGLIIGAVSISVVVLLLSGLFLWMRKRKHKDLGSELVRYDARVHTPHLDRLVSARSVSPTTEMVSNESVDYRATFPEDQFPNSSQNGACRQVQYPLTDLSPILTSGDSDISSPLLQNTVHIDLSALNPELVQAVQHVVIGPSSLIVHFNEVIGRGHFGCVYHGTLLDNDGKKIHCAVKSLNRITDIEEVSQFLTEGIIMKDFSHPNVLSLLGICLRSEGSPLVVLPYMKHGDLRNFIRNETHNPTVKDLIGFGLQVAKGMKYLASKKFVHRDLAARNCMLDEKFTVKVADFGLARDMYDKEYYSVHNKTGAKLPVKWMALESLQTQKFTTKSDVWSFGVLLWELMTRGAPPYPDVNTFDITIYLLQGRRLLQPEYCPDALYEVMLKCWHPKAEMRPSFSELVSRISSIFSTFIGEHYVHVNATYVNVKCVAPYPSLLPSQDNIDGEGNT
Description: For Western blot analysis, +SA cells were initially plated at a density of 1×10^6 cells/100-mm culture dish, allowed to attach overnight and then incubated in the respective control or treatment media. At the end of treatment period, cells were isolated with trypsin, washed with PBS, and then whole cell lysates were prepared in a Laemmle buffer. Protein concentration in each sample was determined using a protein assay kit (Bio-Rad protein assay kit, Bio Rad, Hercules, Calif., USA). Equal amount of protein (30-50 μg/lane) of each sample was subjected to electrophoresis through 7.5%-15% SDS-polyacrylamide minigels. Minigels within a given treatment were run simultaneously using AccuPower model 500 power supply unit (VWR, Suwanee, Ga., USA). Each gel was then equilibrated in transfer buffer and transblotted at 30 V for 12-16 hours at 4° C. onto a polyvinylidene fluoride (PVDF) membrane (PerkinElmer Lifesciences, Wellesley, Mass., USA) in a Trans-Blot Cell (Bio-Rad Laboratories, Hercules, Calif.) according to the method of Towbin. These PVDF membranes were then blocked with 2% BSA in 10 mM Tris-HCl containing 50 mM NaCl and 0.1% Tween 20, pH 7.4 (TBST) and then, incubated with specific primary antibodies against Met, phospho-Met, cleaved caspase-3, cleaved PARP, and α-tubulin diluted 1:1000 to 1:5000 in 2% BSA in TBST for 2 hours at room temperature or overnight at 4° C. Membranes were then washed 5 times with TBST and incubated with respective horseradish […]-conjugated secondary antibody diluted 1:3000 to 1:5000 in 2% BSA in TBST for 1 hour at room temperature followed by rinsing with TBST for 5 times. Blots were then visualized by chemiluminescence. (Pierce, Rockford, Ill., USA). Images of protein bands from all treatment groups within a given experiment were acquired using Kodak Gel Logic 1500 Imaging System (Carestream Health Inc, New Haven, Conn., USA). The visualization of α-tubulin was used to ensure equal sample loading in each lane.
+SA cells were plated at a density of 1×10^6 cells/100 mm culture dish. Cells were then incubated with serum-free media containing vehicle (control), 5.5 μM SU11274 or 4 μM γ-tocotrienol and 10 ng/mL HGF as the mitogen for a 3-day culture period. Following treatment exposure, cells were incubated in mitogen-free media overnight. Afterwards, cells were stimulated with 100 ng/mL HGF for 30 min Cells incubated in mitogen-free media were used as untreated controls. Following mitogen exposure, whole cell lysates were prepared and then subjected to polyacrylamide gel electrophoresis and Western blot analysis for total and phosphorylated Met levels. α-Tubulin was visualized to ensure equal sample loading in each lane. Each Western blot is a representative image of the data obtained for experiments that were repeated at least three times.
The +SA cells were plated at a density of 1×10^6 cells/100 mm culture dish. Cells were then incubated with serum-free media containing vehicle (control) or 4 μM γ-tocotrienol, and 10 ng/mL HGF as a mitogen. Cells were collected at various times during the next 72-h period. Following treatment exposure at each time point, cells were incubated in mitogen-free media overnight. Afterwards, cells were stimulated with 100 ng/mL HGF for 30 min Cells incubated with mitogen-free media were used as untreated controls. Following mitogen exposure, whole cell lysates were prepared and then subjected to polyacrylamide gel electrophoresis and Western blot analysis for total and phosphorylated (active) Met receptor levels. α-Tubulin was visualized to ensure equal sample loading in each lane. Western blots presented in FIG. 4 are representative of the data obtained for experiments that were repeated at least three times.
Cells were then incubated with serum-free media containing vehicle (control), 3 μM SU11274, 2 μM γ-tocotrienol or the combination of 3 μM SU11274 and 2 μM γ-tocotrienol, and 10 ng/mL HGF as a mitogen for a 3-day culture period. […]

[1] = 5.5 μM SU11274, 3-day culture, then 100 ng/mL HGF for 30 min, vs vehicle-treated control
[2] = 4 μM γ-tocotrienol, 10 ng/mL HGF, time course over 72 h, vs vehicle-treated control

Compound | HGF-dependent +SA cell growth (+SA mammary tumor cells; 4.5-5.5 μM SU11274, 10 ng/mL HGF, 3-day culture, P<0.05) | HGF-dependent +SA cell growth (+SA mammary tumor cells; subeffective dose 3 μM SU11274 alone, 10 ng/mL HGF, 3-day culture) | +SA tumor cell growth (+SA mammary tumor cells) | HGF-dependent Met tyrosine phosphorylation (activation) (Met; [1]) | total intracellular levels of Met receptors (Met; [1]) | HGF-dependent Met tyrosine phosphorylation (Met) | HGF-dependent +SA cell growth (+SA mammary tumor cells; 4 μM γ-tocotrienol, 10 ng/mL HGF, 3-day culture, P<0.05) | HGF-dependent +SA cell growth (+SA mammary tumor cells; subeffective dose 2 μM γ-tocotrienol alone, 10 ng/mL HGF, 3-day culture) | culture exposure time at which reduction in total levels of Met protein was maximal (Met; [2]) | treatment exposure time at which reduction in total levels of Met protein started (Met; [2]) | level of total Met protein (Met; 4 μM γ-tocotrienol, 3-day culture, then 100 ng/mL HGF for 30 min) | HGF-induced Met phosphorylation (Met; 4 μM γ-tocotrienol, 3-day culture, then 100 ng/mL HGF for 30 min, mirrors loss of Met expression) | growth of neoplastic +SA mammary epithelial cells (viable cell number) (+SA mammary tumor cells; stimulation with 1-10 ng/mL HGF, 3-day culture, dose-responsive, vs mitogen-free control media, P<0.05)
Cc1[nH]c(/C=C2\C(=O)Nc3ccc(S(=O)(=O)N(C)c4cccc(Cl)c4)cc32)c(C)c1C(=O)N1CCN(C)CC1 [SU11274, reference compound] | significantly inhibited | no effect | inhibited | large relative reduction | no effect | inhibited |  |  |  |  |  |  | 
CC(C)=CCC/C(C)=C/CC/C(C)=C/CC[C@]1(C)CCc2cc(O)c(C)c(C)c2O1 [γ-tocotrienol] |  |  | inhibited |  |  | inhibited | significantly inhibited | no effect | 3 days | 24 h | significant reduction | loss | 
HGF: Hepatocyte growth factor (HGF), the mitogen, purchased from PeproTech Inc. |  |  |  |  |  |  |  |  |  |  |  |  | significantly increased
